Test results taken from patent publication US8436159B2, “Glyphosate resistant class I 5-endolpyruvylshikimate-3-phosphate synthase (EPSPS)” (Monsanto Technology LLC, priority 2003, dated 2013).
Changes are numbered by the printed parent chain.

Experiments:
[1] = molecular target: T1, maize (Zea mays) class I EPSPS variant TIPG (T102I, P106G), pMON42480 (Zea mays, UniProt O24566, P106G/T102I); experiment: EPSPS steady-state kinetics, TIPG variant; format: biochemical
T1 construct: pMON42480
T1 sequence (O24566 1-444 T102I/P106G): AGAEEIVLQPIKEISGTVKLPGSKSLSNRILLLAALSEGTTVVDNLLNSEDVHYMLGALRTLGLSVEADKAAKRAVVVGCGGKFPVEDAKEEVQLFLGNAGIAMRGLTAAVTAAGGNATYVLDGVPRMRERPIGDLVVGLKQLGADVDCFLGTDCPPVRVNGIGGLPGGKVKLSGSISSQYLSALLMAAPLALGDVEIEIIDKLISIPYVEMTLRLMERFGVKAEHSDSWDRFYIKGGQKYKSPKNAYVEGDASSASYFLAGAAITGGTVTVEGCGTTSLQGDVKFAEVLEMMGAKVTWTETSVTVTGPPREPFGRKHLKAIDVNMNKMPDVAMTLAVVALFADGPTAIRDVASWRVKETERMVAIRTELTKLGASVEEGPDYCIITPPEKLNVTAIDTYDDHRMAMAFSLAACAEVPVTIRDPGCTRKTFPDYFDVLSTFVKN
Source text: (§1) The double variants of the present invention were made using pMON58452 (FIG. 5) as the template. This pMON58452 EPSPS gene template contains the maize EPSPS double variant T102I, P106T (TIPT) that was constructed by mutagenesis of pMON70467 with the mutagenesis primers mEmut-9-U and mEmut-10-L. The various mutagenesis primer sequences were designed and then were synthesized by Invitrogen Corp., Custom Primers and used in combination in a PCR to create the variant EPSPS coding sequences. The PCR was set up in a 50 μl reaction in the following manner: dH2O 38 μl; 2 mM dNTP 1 μL; 10× buffer 5 μL; pMON58452 1 μL (10 ng); primer-U 2 μL; primer-L 2 μL; pfu Turbo enzyme 1 μL. PCR was carried out on a MJ Research PTC-200 thermal cycler using the following program: Step 1—94° C. for 30 seconds; Step 2—94° C. for 30 seconds; Step 3—55° C. for 1 minute; Step 4—68° C. for 14 minute; Step 5—go to step 2, 16 times; Step 6—End. At the end of the PCR, 1 μl of the restriction enzyme DpnI was added to each 50 μl of PCR reaction and the mixture was incubated at 37° C. for 1 hour. […]

[2] = molecular target: T2, maize (Zea mays) class I EPSPS variant TIPM (T102I, P106M), pMON42484 (Zea mays, UniProt O24566, P106M/T102I); experiment: EPSPS steady-state kinetics, TIPM variant; format: biochemical
T2 construct: pMON42484
T2 sequence (O24566 1-444 T102I/P106M): T1 sequence (O24566 1-444 T102I/P106G) with G106M
Source text: as §1

Work on `O=C(O)CNCP(=O)(O)O` [glyphosate, N-phosphonomethylglycine] yielded a Ki [1] of 0.0386 mM and a Ki [2] of 37.2 ± 1.5 mM.
